{"source": "paper PMC6289772", "about": "(Cancer, 2018)", "key": {"[1]": {"assay": "Axitinib plasma pharmacokinetics, phase 1 trial", "type": "in vivo"}, "[2]": {"assay": "Toxicity / dose-limiting toxicity evaluation, phase 1 trial", "type": "in vivo"}, "[3]": {"system": "recurrent or refractory solid tumors", "assay": "Tumor response assessment", "type": "in vivo, human (children and adolescents)"}, "[4]": {"type": "in vivo, human (children and adolescents)"}, "[5]": {"conditions": "cited from earlier work"}, "[6]": {"conditions": "median (range), Dose Level 2.4 mg/m^2, Day 1 (n=12)"}, "[7]": {"conditions": "median (range), Dose Level 3.2 mg/m^2, Day 1 (n=6)"}}}
{"smiles": "CNC(=O)c1ccccc1Sc1ccc2c(/C=C/c3ccccn3)n[nH]c2c1", "note": "[Axitinib]", "values": [{"measurement": "median oral clearance CL/F", "setting": "[1]; Day 1, children <12 years", "value": 28.6, "unit": "L/h/m^2"}, {"measurement": "median oral clearance CL/F", "setting": "[1]; Day 1, children ≥12 years", "value": 19.7, "unit": "L/h/m^2"}, {"measurement": "median oral clearance CL/F", "setting": "[1]; Day 1, females", "value": 19.7, "unit": "L/h/m^2"}, {"measurement": "median oral clearance CL/F", "setting": "[1]; Day 1, males", "value": 24.2, "unit": "L/h/m^2"}, {"measurement": "half-life", "setting": "[1]; human, plasma, oral", "value": 2.4, "unit": "h"}, {"measurement": "AUC(0-t)", "setting": "[1]; human, plasma, oral, 2.4 mg/m2, AUC0–8h, median (range), Dose Level 2.4 mg/m^2, Day 1 (n=12)", "value": 91, "unit": "ng·h/mL"}, {"measurement": "AUC(0-t)", "setting": "[1]; human, plasma, oral, 2.4 mg/m2, AUC0–8h, median (range), Dose Level 2.4 mg/m^2, Day 8 (n=12)", "value": 147, "unit": "ng·h/mL"}, {"measurement": "Cmax", "setting": "[1]; human, plasma, oral, 2.4 mg/m2, Cmax, median (range), Dose Level 2.4 mg/m^2, Day 1 (n=12)", "value": 23.8, "unit": "ng/mL"}, {"measurement": "Cmax", "setting": "[1]; human, plasma, oral, 2.4 mg/m2, Cmax, median (range), Dose Level 2.4 mg/m^2, Day 8 (n=12)", "value": 47.4, "unit": "ng/mL"}, {"measurement": "half-life", "setting": "[1]; human, plasma, oral, 2.4 mg/m2, Half life, median (range), Dose Level 2.4 mg/m^2, Day 1 (n=12)", "value": 2.2, "unit": "h"}, {"measurement": "half-life", "setting": "[1]; human, plasma, oral, 2.4 mg/m2, Half life, median (range), Dose Level 2.4 mg/m^2, Day 8 (n=12)", "value": 2.5, "unit": "h"}, {"measurement": "Tmax", "setting": "[1]; human, plasma, oral, 2.4 mg/m2, Tmax, median (range), Dose Level 2.4 mg/m^2, Day 1 (n=12)", "value": 2, "unit": "h"}, {"measurement": "Tmax", "setting": "[1]; human, plasma, oral, 2.4 mg/m2, Tmax, median (range), Dose Level 2.4 mg/m^2, Day 8 (n=12)", "value": 1.5, "unit": "h"}, {"measurement": "AUC(0-t)", "setting": "[1]; human, plasma, oral, 3.2 mg/m2, AUC0–8h, median (range), Dose Level 3.2 mg/m^2, Day 1 (n=6)", "value": 134, "unit": "ng·h/mL"}, {"measurement": "AUC(0-t)", "setting": "[1]; human, plasma, oral, 3.2 mg/m2, AUC0–8h, median (range), Dose Level 3.2 mg/m^2, Day 8 (n=5)", "value": 140, "unit": "ng·h/mL"}, {"measurement": "Cmax", "setting": "[1]; human, plasma, oral, 3.2 mg/m2, Cmax, median (range), Dose Level 3.2 mg/m^2, Day 1 (n=6)", "value": 38, "unit": "ng/mL"}, {"measurement": "half-life", "setting": "[1]; human, plasma, oral, 3.2 mg/m2, Half life, median (range), Dose Level 3.2 mg/m^2, Day 1 (n=6)", "value": 2.6, "unit": "h"}, {"measurement": "half-life", "setting": "[1]; human, plasma, oral, 3.2 mg/m2, Half life, median (range), Dose Level 3.2 mg/m^2, Day 8 (n=5)", "value": 1.8, "unit": "h"}, {"measurement": "Tmax", "setting": "[1]; human, plasma, oral, 3.2 mg/m2, Tmax, median (range), Dose Level 3.2 mg/m^2, Day 1 (n=6)", "value": 2, "unit": "h"}, {"measurement": "Tmax", "setting": "[1]; human, plasma, oral, 3.2 mg/m2, Tmax, median (range), Dose Level 3.2 mg/m^2, Day 8 (n=5)", "value": 2, "unit": "h"}, {"measurement": "half-life", "setting": "[1]; human, plasma, oral, half-life (range), all patients", "value": "0.7 to 5.2", "unit": "h"}, {"measurement": "half-life", "setting": "[1]; human, plasma, oral, median half-life, Day 8, all patients", "value": 2.5, "unit": "h"}, {"measurement": "accumulation ratio (day 8 AUC0–8h versus day 1 AUC0–8h)", "setting": "[1]; median (range), all patients", "value": "1.8 (0.3 – 4.7)"}, {"measurement": "Cl/F", "setting": "[1]; [6]", "value": "28.0 (9.8–230.1) L/h"}, {"measurement": "Cl/m^2", "setting": "[1]; [6]", "value": "21.4 (6.0–230.1) L/h/m^2"}, {"measurement": "V/F", "setting": "[1]; [6]", "value": "74.9 (43.6–888.7) L"}, {"measurement": "V/m^2", "setting": "[1]; [6]", "value": "67.4 (39.1–888.7) L/m^2"}, {"measurement": "Cl/F", "setting": "[1]; [7]", "value": "32.6 (14.2–65.2) L/h"}, {"measurement": "Cl/m^2", "setting": "[1]; [7]", "value": "19.9 (11.4–61.5) L/h/m^2"}, {"measurement": "V/F", "setting": "[1]; [7]", "value": "99.4 (48.9–150.6) L"}, {"measurement": "V/m^2", "setting": "[1]; [7]", "value": "65.5 (39.1–101.6) L/m^2"}, {"measurement": "Cmax", "setting": "[1]; median (range), Dose Level 3.2 mg/m^2, Day 8 (n=5)", "value": "41.5 (15.5–76.5) ng/mL"}, {"measurement": "Abdominal pain, Grade 2", "setting": "[2]; human, in vivo", "value": 1}, {"measurement": "Alanine aminotransferase increased, Grade 2", "setting": "[2]; human, in vivo", "value": 1}, {"measurement": "Anemia, Grade 1", "setting": "[2]; human, in vivo", "value": 1}, {"measurement": "Anorexia, Grade 1", "setting": "[2]; human, in vivo", "value": 1}, {"measurement": "Fatigue, Grade 1", "setting": "[2]; human, in vivo", "value": 3}, {"measurement": "Fatigue, Grade 2", "setting": "[2]; human, in vivo", "value": 1}, {"measurement": "Headache, Grade 2", "setting": "[2]; human, in vivo", "value": 1}, {"measurement": "Hemoglobin increased, Grade 1", "setting": "[2]; human, in vivo", "value": 1}, {"measurement": "Hemoglobin increased, Grade 2", "setting": "[2]; human, in vivo", "value": 2}, {"measurement": "Hemoglobin increased, Grade 3", "setting": "[2]; human, in vivo", "value": 1}, {"measurement": "Hypertension, Grade 2", "setting": "[2]; human, in vivo", "value": 3}, {"measurement": "Hypertension, Grade 3", "setting": "[2]; human, in vivo", "value": 1}, {"measurement": "Hypophosphatemia, Grade 1", "setting": "[2]; human, in vivo", "value": 1}, {"measurement": "Hypothyroidism, Grade 2", "setting": "[2]; human, in vivo", "value": 2}, {"measurement": "Leukopenia, Grade 1", "setting": "[2]; human, in vivo", "value": 1}, {"measurement": "Lipase increased, Grade 2", "setting": "[2]; human, in vivo", "value": 2}, {"measurement": "Lipase increased, Grade 3", "setting": "[2]; human, in vivo", "value": 1}, {"measurement": "Lymphopenia, Grade 1", "setting": "[2]; human, in vivo", "value": 1}, {"measurement": "Nausea, Grade 1", "setting": "[2]; human, in vivo", "value": 1}, {"measurement": "Nausea, Grade 2", "setting": "[2]; human, in vivo", "value": 2}, {"measurement": "Neutropenia, Grade 2", "setting": "[2]; human, in vivo", "value": 2}, {"measurement": "Palmar-plantar erythrodysesthesia syndrome, Grade 1", "setting": "[2]; human, in vivo", "value": 1}, {"measurement": "Palmar-plantar erythrodysesthesia syndrome, Grade 2", "setting": "[2]; human, in vivo", "value": 1}, {"measurement": "Proteinuria, Grade 1", "setting": "[2]; human, in vivo", "value": 2}, {"measurement": "Proteinuria, Grade 2", "setting": "[2]; human, in vivo", "value": 1}, {"measurement": "Vomiting, Grade 1", "setting": "[2]; human, in vivo", "value": 1}, {"measurement": "Anemia, Grade 1", "setting": "[2]; human, in vivo, 1 cycle", "value": 3}, {"measurement": "Anemia, Grade 2", "setting": "[2]; human, in vivo, 1 cycle", "value": 2}, {"measurement": "Hemoglobin increased, Grade 1", "setting": "[2]; human, in vivo, 1 cycle", "value": 3}, {"measurement": "Hypertension, Grade 2", "setting": "[2]; human, in vivo, 1 cycle", "value": 4}, {"measurement": "Hypophosphatemia, Grade 1", "setting": "[2]; human, in vivo, 1 cycle", "value": 2}, {"measurement": "Hypothyroidism, Grade 1", "setting": "[2]; human, in vivo, 1 cycle", "value": 1}, {"measurement": "Hypothyroidism, Grade 2", "setting": "[2]; human, in vivo, 1 cycle", "value": 2}, {"measurement": "Leukopenia, Grade 1", "setting": "[2]; human, in vivo, 1 cycle", "value": 1}, {"measurement": "Lipase increased, Grade 1", "setting": "[2]; human, in vivo, 1 cycle", "value": 1}, {"measurement": "Lipase increased, Grade 2", "setting": "[2]; human, in vivo, 1 cycle", "value": 1}, {"measurement": "Lymphopenia, Grade 1", "setting": "[2]; human, in vivo, 1 cycle", "value": 1}, {"measurement": "Lymphopenia, Grade 2", "setting": "[2]; human, in vivo, 1 cycle", "value": 1}, {"measurement": "Neutropenia, Grade 2", "setting": "[2]; human, in vivo, 1 cycle", "value": 1}, {"measurement": "Palmar-plantar erythrodysesthesia syndrome, Grade 2", "setting": "[2]; human, in vivo, 1 cycle", "value": 2}, {"measurement": "Proteinuria, Grade 1", "setting": "[2]; human, in vivo, 1 cycle", "value": 2}, {"measurement": "Rash acneiform, Grade 1", "setting": "[2]; human, in vivo, 1 cycle", "value": 2}, {"measurement": "Sore throat, Grade 1", "setting": "[2]; human, in vivo, 1 cycle", "value": 2}, {"measurement": "Thrombocytopenia, Grade 1", "setting": "[2]; human, in vivo, 1 cycle", "value": 1}, {"measurement": "Vomiting, Grade 1", "setting": "[2]; human, in vivo, 1 cycle", "value": 3}, {"measurement": "recommended phase 2 dose (RP2D)", "setting": "[2]; human, in vivo, po, 28 days", "value": 2.4, "unit": "mg/m^2/dose"}, {"measurement": "DLTs at dose level 1", "setting": "[2]; in vivo", "value": "No DLTs"}, {"measurement": "growth plate abnormalities (tibia radiograph)", "setting": "[2]; in vivo", "value": "No growth plate abnormalities were observed"}, {"measurement": "number of grade 3 toxicities (non-dose limiting)", "setting": "[2]; in vivo", "value": "three"}, {"measurement": "maximum tolerated and recommended dose", "setting": "[2]; orally twice daily, continuous 28-day cycles, children with refractory solid tumors", "value": 2.4, "unit": "mg/m^2/dose"}, {"measurement": "patients with partial response", "setting": "[3]; alveolar soft part sarcoma, 15 patients with reportable response", "value": "One patient"}, {"measurement": "duration of partial response", "setting": "[3]; patient with alveolar soft part sarcoma, prior to clinical progression", "value": 6, "unit": "months"}, {"measurement": "trends in AKI biomarkers (KIM-1, NGAL, IL-18) during axitinib therapy", "setting": "[4]; cycle 1 or between dose levels", "value": "no trends were identified"}, {"measurement": "increase in urine UPC ratio per cycle", "setting": "[4]; during axitinib therapy, not significant (P=0.30)", "value": 4, "unit": "%"}, {"measurement": "maximum tolerated dose (MTD) in adults", "setting": "[5]; PO BID", "value": 5, "unit": "mg"}, {"measurement": "median time to onset of grade 1–2 hypertension", "setting": "[5]; adults", "value": 16, "unit": "days"}, {"measurement": "median time to onset of grade ≥ 3 hypertension", "setting": "[5]; adults", "value": 24, "unit": "days"}, {"measurement": "patients with discontinuation due to axitinib related hypertension", "setting": "[5]; adults", "value": "< 1", "unit": "%"}, {"measurement": "patients with dose interruptions due to axitinib related hypertension", "setting": "[5]; adults", "value": 12, "unit": "%"}, {"measurement": "patients with dose modification due to axitinib related hypertension", "setting": "[5]; adults", "value": 5, "unit": "%"}]}
